Data reported in patent US20260356851A1, “TRICYCLIC COMPOUNDS AND USES THEREOF” (HUTCHMED LIMITED, priority 2023, published 2026).

Assays:
Type in all cases: cell-based
[1] = molecular target: T1, pERK1/2 (Thr202/Tyr204), NCI-1H358 (KRAS G12C) (Homo sapiens, UniProt P01116, G12C); experiment: Assay of intracellular pERK1/2 (Thr202/Tyr204) phosphorylation in NCI-H358 cells (KRAS G12C); conditions: pERK1/2, 2 days, read-out: NCI-H358 (KRAS G12C) IC50
T1 construct: pERK1/2 HTRF read-out
Summary of the method: (§1)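 Cells (10000-12000/well) exposed to 3-fold compound dilutions for 2 days at 37 °C, then lysed; pERK1/2 (Thr202/Tyr204) measured by HTRF with d2 and cryptate antibodies, 665/615 nm ratio.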

[2] = molecular target: T2, pERK1/2 (Thr202/Tyr204), PANC-1 (KRAS G121D) (Homo sapiens, UniProt P01116, G12D); experiment: Assay of intracellular pERK1/2 (Thr202/Tyr204) phosphorylation in PANC-1 cells (KRAS G12D); conditions: pERK1/2, 2 days, read-out: PANC-1 (KRAS G12D) IC50
T2 construct: pERK1/2 HTRF read-out
Summary of the method: as §1

[3] = molecular target: T3, pERK1/2 (Thr202/Tyr204), NCI-1H441 (KRAS G12V) (Homo sapiens, UniProt P01116, G12V); experiment: Assay of intracellular pERK1/2 (Thr202/Tyr204) phosphorylation in NCI-H441 cells (KRAS G12V); conditions: pERK1/2, 2 days, read-out: NCI-H441 (KRAS G12V) IC50
T3 construct: pERK1/2 HTRF read-out
Summary of the method: as §1

T1 sequence (P01116 1-188 isoform P01116-2 G12C): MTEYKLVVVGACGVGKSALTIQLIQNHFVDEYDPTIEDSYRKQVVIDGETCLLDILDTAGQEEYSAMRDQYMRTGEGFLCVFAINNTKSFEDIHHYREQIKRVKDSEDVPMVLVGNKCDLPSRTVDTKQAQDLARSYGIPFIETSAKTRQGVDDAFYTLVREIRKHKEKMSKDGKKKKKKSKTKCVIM
T2 sequence (P01116 1-188 isoform P01116-2 G12D): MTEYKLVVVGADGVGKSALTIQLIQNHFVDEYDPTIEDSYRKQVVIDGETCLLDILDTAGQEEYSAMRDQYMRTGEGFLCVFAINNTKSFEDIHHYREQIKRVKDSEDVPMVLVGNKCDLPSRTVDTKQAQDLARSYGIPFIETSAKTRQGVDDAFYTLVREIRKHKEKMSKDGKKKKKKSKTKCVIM
T3 sequence (P01116 1-188 isoform P01116-2 G12V): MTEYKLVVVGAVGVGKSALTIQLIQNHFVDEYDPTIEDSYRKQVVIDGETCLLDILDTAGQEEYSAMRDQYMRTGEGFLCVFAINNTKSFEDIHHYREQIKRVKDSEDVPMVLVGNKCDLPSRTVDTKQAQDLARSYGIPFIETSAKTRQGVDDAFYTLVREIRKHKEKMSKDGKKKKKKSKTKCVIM

Row | Compound | IC50 [1] [nM] | IC50 [2] [nM] | IC50 [3] [nM]
1 | Cc1cc(N)cc(-c2nc3c4c(nc(OC[C@@]56CCCN5C[C@H](F)C6)nc4c2F)N(C(C)c2cc(F)cnc2N)CCO3)c1C(F)(F)F (stereo partly drawn) [Compound 173] | 0.5 | 7 | 0.8
2 | Cc1c(F)c(N)cc(-c2nc3c4c(nc(OC[C@@]56CCCN5C[C@H](F)C6)nc4c2F)N(C(C)c2cc(F)cnc2N)CCO3)c1C(F)(F)F (stereo partly drawn) [Compound 177] | 0.7 | 11 | 2
3 | Cc1c(F)c(N)cc(-c2nc3c4c(nc(OC[C@@]56CCCN5C[C@H](F)C6)nc4c2F)N(Cc2cccnc2N)CCO3)c1C(F)(F)F [Compound 180] | 1 | 35 | 6
4 | Cc1cc(N)cc(-c2nc3c4c(nc(OC[C@@]56CCCN5C[C@H](F)C6)nc4c2F)N(C(C)c2cccnc2N)C2(CC2)CO3)c1C(F)(F)F (stereo partly drawn) [Compound 181] | > 100 | > 100 | > 100
5 | Cc1c(F)c(N)cc(-c2nc3c4c(nc(OC[C@@H]5C[C@@H](F)CN5C)nc4c2F)N(C(C)c2cccnc2N)CCO3)c1C(F)(F)F (stereo partly drawn) [Compound 185] | 0.3 | 13 | 1
6 | Cc1c(F)c(N)cc(-c2nc3c4c(nc(OC[C@@]56CCCN5C[C@H](F)C6)nc4c2F)N(C2(c4cccnc4N)CC2)CCO3)c1C(F)(F)F [Compound 187] | 63 | > 100 | 44
7 | Cc1c(F)c(N)cc(-c2nc3c4c(nc(OC[C@@]56CCC(=O)N5C[C@H](F)C6)nc4c2F)N(C(C)c2cccnc2N)CCO3)c1C(F)(F)F (stereo partly drawn) [Compound 195] | 33 | > 100 | 99
8 | Cc1c(F)c(N)cc(-c2nc3c4c(nc(OC[C@@]56CCCN5C[C@H](F)C6)nc4c2F)N(C2CC2)CCO3)c1C(F)(F)F [Compound 196] | > 100 | > 100 | > 100
9 | C#Cc1c(F)ccc2cc(O)cc(-c3nc4c5c(nc(OC[C@@]67CCCN6C[C@H](F)C7)nc5c3F)N(C3CC3)CCO4)c12 [Compound 197] | > 100 | > 100 | > 100
10 | Cc1c(F)c(N)cc(-c2nc3c4c(nc(OC[C@@]56CCCN5C[C@H](F)C6)nc4c2F)N(C2CCNC2)CCO3)c1C(F)(F)F (stereo partly drawn) [Compound 198] | > 100 | > 100 | > 100
11 | Cc1c(F)c(N)cc(-c2nc3c4c(nc(OC[C@@]56CCCN5C[C@H](F)C6)nc4c2F)N(C(C)c2cccnc2N)CCO3)c1Cl (stereo partly drawn) [Compound 204] | 1 | 49 | 4
12 | CC(c1cccnc1N)N1CCOc2nc(-c3cc(N)c(F)c(Cl)c3C(F)(F)F)c(F)c3nc(OC[C@@H]4C[C@@H](F)CN4C)nc1c23 (stereo partly drawn) [Compound 205] | 0.3 | 11 | 1
13 | Cc1c(F)c(N)cc(-c2nc3c4c(nc(OCC56CCCN5CC5(CC5)C6)nc4c2F)N(C(C)c2cccnc2N)CCO3)c1C(F)(F)F (stereo not drawn) [Compound 218] | 0.5 | 4 | 1
14 | [2H]C1([2H])CC[C@@]2(COc3nc4c5c(nc(-c6cc(N)c(F)c(Cl)c6C(F)(F)F)c(F)c5n3)OCCN4C(C)c3cccnc3N)C[C@@H](F)CN12 (stereo partly drawn) [Compound 221] | 0.1 | 2 | 0.4
15 | [2H]C1([2H])CC[C@@]2(COc3nc4c5c(nc(-c6cc(N)c(F)c(Cl)c6C(F)(F)F)c(F)c5n3)OC([2H])([2H])C([2H])([2H])N4C(C)c3ccc[n+]([O-])c3N)C[C@@H](F)CN12 (stereo partly drawn) [Compound 224] | > 100 | > 100 | > 100
16 | Cc1cc(N)cc(-c2nc3c4c(nc(OC[C@@]56CCCN5C/C(=C\F)C6)nc4c2F)N(C(C)c2cccnc2N)CCO3)c1C(F)(F)F (stereo partly drawn) [Compound 225] | 0.2 | 0.5 | 0.5

Row | Compound | IC50 [1] [nM] | IC50 [2] [nM] | IC50 [3] [nM]
17 | Cc1c(F)c(N)cc(-c2nc3c4c(nc(OC[C@@]56CCCN5C[C@H](F)C6)nc4c2F)N(C(C)c2ccc[n+]([O-])c2N)CCO3)c1C(F)(F)F (stereo partly drawn) [Compound 226] | 43 | > 100 | > 100
18 | CC(c1cccnc1N)N1CCOc2nc(-c3cc(N)c(F)c(Cl)c3C(F)(F)F)c(F)c3nc(OC[C@@]45CCCN4C/C(=C\F)C5)nc1c23 (stereo partly drawn) [Compound 229] | 0.1 | 0.5 | 0.5
19 | Cc1c(F)c(N)cc(-c2nc3c4c(nc(OC[C@@]56CCCN5C/C(=C\F)C6)nc4c2F)N(C(C)c2cccnc2N)CCO3)c1C(F)(F)F (stereo partly drawn) [Compound 230] | 0.1 | 1 | 0.5
20 | [2H]C1([2H])CC[C@@]2(COc3nc4c5c(nc(-c6cc(N)cc(C)c6C(F)(F)F)c(F)c5n3)OCCN4C(C)c3cccnc3N)C[C@@H](F)CN12 (stereo partly drawn) [Compound 231] | 0.2 | 0.8 | 0.2
21 | CC(c1cccnc1N)N1CCOc2nc(-c3cc(N)c(F)c(Cl)c3C3CC3)c(F)c3nc(OC[C@@]45CCCN4C[C@H](F)C5)nc1c23 (stereo partly drawn) [Compound 232] | 0.2 | 5 | 0.9
22 | CC(c1cccnc1N)N1CCOc2nc(-c3cc(N)c(F)c(Cl)c3Cl)c(F)c3nc(OC[C@@]45CCCN4C[C@H](F)C5)nc1c23 (stereo partly drawn) [Compound 233] | 1 | 32 | 3
23 | Cc1cc(N)cc(-c2nc3c4c(nc(OC[C@@]56CCCN5CC5(CC5(F)F)C6)nc4c2F)N(C(C)c2cccnc2N)CCO3)c1C(F)(F)F (stereo partly drawn) [Compound 237] | 0.3 | 1 | 0.4
24 | Cc1c(F)c(N)cc(-c2nc3c4c(nc(OC[C@@]56CCCN5CC(=C(F)F)C6)nc4c2F)N(C(C)c2cccnc2N)CCO3)c1C(F)(F)F (stereo partly drawn) [Compound 243] | 0.2 | 1 | 0.5
25 | C#Cc1c(F)ccc2cc(O)cc(-c3nc4c5c(nc(OC[C@@]67CCCN6C[C@H](F)C7)nc5c3F)N(C(C)c3cccnc3N)CCO4)c12 (stereo partly drawn) [Compound 259] | 0.9 | 1 | 1
26 | Cc1cc(N)cc(-c2nc3c4c(nc(OC[C@@]56CCCN5C[C@H](F)C6)nc4c2F)N(C(C)c2cccnc2N)[C@@H](C)CO3)c1C(F)(F)F (stereo partly drawn) [Compound 262] | 28 | 40 | 47
27 | CC(=O)Nc1ncccc1C(C)N1CCOc2nc(-c3cc(N)c(F)c(C)c3C(F)(F)F)c(F)c3nc(OC[C@@]45CCCN4C[C@H](F)C5)nc1c23 (stereo partly drawn) [Compound 266] | 95 | > 100 | > 100
28 | CC(c1cccnc1N)N1c2nc(OC[C@@]34CCCN3C[C@H](F)C4)nc3c(F)c(-c4cc(O)cc(Cl)c4C4CC4)nc(c23)OC[C@@H]1C (stereo partly drawn) [Compound 268] | 0.2 | 0.4 | 0.5
29 | CC(c1cccnc1N)N1c2nc(OC[C@@H]3C[C@@H](F)CN3C)nc3c(F)c(-c4cc(O)cc5ccc(F)c(F)c45)nc(c23)OC[C@@H]1C (stereo partly drawn) [Compound 281] | 0.2 | 1 | 0.5
30 | CC(c1cccnc1N)N1c2nc(OC[C@@H]3C[C@@H](F)CN3C)nc3c(F)c(-c4cc(N)c(F)c(Cl)c4C(F)(F)F)nc(c23)OC[C@@H]1C (stereo partly drawn) [Compound 289] | 0.3 | 4 | 1
31 | CCc1c(F)ccc2cc(O)cc(-c3nc4c5c(nc(OC[C@@H]6C[C@@H](F)CN6C)nc5c3F)N(C(C)c3cccnc3N)[C@@H](C)CO4)c12 (stereo partly drawn) [Compound 290] | 0.2 | 0.2 | 0.3
